Target: T1, PTK6 (Homo sapiens, UniProt Q13882)
T1 construct: endogenous in cells; host or cells: MDA-MB231 cells (ATCC)
Test: Western blot of PTK6 protein levels in MDA-MB231 cells
Type: cell-based
Details: MDA-231 (MDA-MB231) cells, 500 nM, 24 hours, Western blot (FIGS. 3-5)
Description: FIGS. 2-5. Effects of exemplary compounds on reducing PTK6 protein levels in breast cancer cells. Triple negative MDA-MB231 cells were treated for 24 hours with 500 nM, 2 uM or 2.5 uM of test compound and lysed. Proteins were resolved by SDS/PAGE and immunoblotted with antibody to PTK6 (Santa Cruz, Cell Signaling) or GAPDH loading control (Cell Signaling).
FIG. 13. PTK6 degraders suppress PTK6 expression. MDA-MB231 cells were treated with compounds (500 nM or 1 uM) for 24 hours in monolayer cultures. Cells were lysed and lysates were probed with anti-PTK6 antibody.
MDA-MB231 cells were treated with DMSO or indicated compounds at 2.5 uM, 2 uM or 500 nM for 24 hours.
MDA-MB231 cells were treated with compounds (500 nM or 1 uM) for 24 hours in monolayer cultures. Cells were lysed and lysates were probed with anti-PTK6 antibody.
Cells were lysed in 1% NP-40 lysis buffer containing NaF, Na3VO4, Leupeptin, PMSF, aprotinin, and phosphatase inhibitor (PhosSTOP, Roche) as described previously (Irie et al., 2010). Cleared cell lysates were stored at −80° C. and were analyzed by western analysis as described previously (Irie et al., 2010).

T1 sequence (Q13882 whole entry): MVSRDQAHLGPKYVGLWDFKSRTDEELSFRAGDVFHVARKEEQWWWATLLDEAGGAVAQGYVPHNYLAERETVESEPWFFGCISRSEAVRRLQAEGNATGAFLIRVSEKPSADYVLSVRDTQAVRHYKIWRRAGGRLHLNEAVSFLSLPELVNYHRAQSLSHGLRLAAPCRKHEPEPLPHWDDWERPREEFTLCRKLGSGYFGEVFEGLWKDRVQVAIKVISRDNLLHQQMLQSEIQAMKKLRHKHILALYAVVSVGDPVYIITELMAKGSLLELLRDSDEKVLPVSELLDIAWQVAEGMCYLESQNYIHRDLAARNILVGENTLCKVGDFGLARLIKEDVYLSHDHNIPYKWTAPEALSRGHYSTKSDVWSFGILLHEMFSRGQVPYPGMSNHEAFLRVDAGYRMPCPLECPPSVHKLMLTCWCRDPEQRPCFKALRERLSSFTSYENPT

reducing PTK6 protein levels / suppress PTK6 expression | SMILES
potently suppress PTK6 expression | Cc1ncsc1-c1ccc([C@H](C)NC(=O)[C@@H]2C[C@@H](O)CN2C(=O)[C@@H](NC(=O)COCCOCCOCCNC(=O)CN2CCN(C(=O)c3ccc(Nc4nc(C5CC5)cn5c(-c6cn[nH]c6)cnc45)c(F)c3)CC2)C(C)(C)C)cc1 [YX69-159, (2S,4R)-1-((S)-2-(tert-butyl)-17-(4-(4-((6-cyclopropyl-3-(1H-pyrazol-4-yl)imidazo[1,2-a]pyrazin-8-yl)amino)-3-fluorobenzoyl)piperazin-1-yl)-4,16-dioxo-6,9,12-trioxa-3,15-diazaheptadecanoyl)-4-hydroxy-N-((S)-1-(4-(4-methylthiazol-5-yl)phenyl)ethyl)pyrrolidine-2-carboxamide]
potently suppress PTK6 expression | Cc1ncsc1-c1ccc(CNC(=O)[C@@H]2C[C@@H](O)CN2C(=O)[C@@H](NC(=O)CCCC(=O)N2CCN(C(=O)c3ccc(Nc4nc(C5CC5)cn5c(-c6cn[nH]c6)cnc45)c(F)c3)CC2)C(C)(C)C)cc1 [YX79-10, (2S,4R)-1-((S)-2-(5-(4-(4-((6-cyclopropyl-3-(1H-pyrazol-4-yl)imidazo[1,2-a]pyrazin-8-yl)amino)-3-fluorobenzoyl)piperazin-1-yl)-5-oxopentanamido)-3,3-dimethylbutanoyl)-4-hydroxy-N-(4-(4-methylthiazol-5-yl)benzyl)pyrrolidine-2-carboxamide]
potently suppress PTK6 expression | Cc1ncsc1-c1ccc(CNC(=O)[C@@H]2C[C@@H](O)CN2C(=O)[C@@H](NC(=O)CCCCC(=O)N2CCN(C(=O)c3ccc(Nc4nc(C5CC5)cn5c(-c6cn[nH]c6)cnc45)c(F)c3)CC2)C(C)(C)C)cc1 [YX79-11, (2S,4R)-1-((S)-2-(6-(4-(4-((6-cyclopropyl-3-(1H-pyrazol-4-yl)imidazo[1,2-a]pyrazin-8-yl)amino)-3-fluorobenzoyl)piperazin-1-yl)-6-oxohexanamido)-3,3-dimethylbutanoyl)-4-hydroxy-N-(4-(4-methylthiazol-5-yl)benzyl)pyrrolidine-2-carboxamide]
potently suppress PTK6 expression | Cc1ncsc1-c1ccc(CNC(=O)[C@@H]2C[C@@H](O)CN2C(=O)[C@@H](NC(=O)CCCCCC(=O)N2CCN(C(=O)c3ccc(Nc4nc(C5CC5)cn5c(-c6cn[nH]c6)cnc45)c(F)c3)CC2)C(C)(C)C)cc1 [YX79-12, (2S,4R)-1-((S)-2-(7-(4-(4-((6-cyclopropyl-3-(1H-pyrazol-4-yl)imidazo[1,2-a]pyrazin-8-yl)amino)-3-fluorobenzoyl)piperazin-1-yl)-7-oxoheptanamido)-3,3-dimethylbutanoyl)-4-hydroxy-N-(4-(4-methylthiazol-5-yl)benzyl)pyrrolidine-2-carboxamide]
potently suppress PTK6 expression | Cc1ncsc1-c1ccc(CNC(=O)[C@@H]2C[C@@H](O)CN2C(=O)[C@@H](NC(=O)CCOCCC(=O)N2CCN(C(=O)c3ccc(Nc4nc(C5CC5)cn5c(-c6cn[nH]c6)cnc45)c(F)c3)CC2)C(C)(C)C)cc1 [YX79-15, (2S,4R)-1-((S)-2-(3-(3-(4-(4-((6-cyclopropyl-3-(1H-pyrazol-4-yl)imidazo[1,2-a]pyrazin-8-yl)amino)-3-fluorobenzoyl)piperazin-1-yl)-3-oxopropoxy)propanamido)-3,3-dimethylbutanoyl)-4-hydroxy-N-(4-(4-methylthiazol-5-yl)benzyl)pyrrolidine-2-carboxamide]
potently suppress PTK6 expression | O=C1CCC(N2C(=O)c3cccc(NCCOCCOCCC(=O)N4CCN(C(=O)c5ccc(Nc6nc(C7CC7)cn7c(-c8cn[nH]c8)cnc67)c(F)c5)CC4)c3C2=O)C(=O)N1 (centres unmarked) [YX79-36, 4-((2-(2-(3-(4-(4-((6-cyclopropyl-3-(1H-pyrazol-4-yl)imidazo[1,2-a]pyrazin-8-yl)amino)-3-fluorobenzoyl)piperazin-1-yl)-3-oxopropoxy)ethoxy)ethyl)amino)-2-(2,6-dioxopiperidin-3-yl)isoindoline-1,3-dione]
potently suppress PTK6 expression | O=C1CCC(N2C(=O)c3cccc(NCCOCCOCCOCCC(=O)N4CCN(C(=O)c5ccc(Nc6nc(C7CC7)cn7c(-c8cn[nH]c8)cnc67)c(F)c5)CC4)c3C2=O)C(=O)N1 (centres unmarked) [YX79-37, 4-((2-(2-(2-(3-(4-(4-((6-cyclopropyl-3-(1H-pyrazol-4-yl)imidazo[1,2-a]pyrazin-8-yl)amino)-3-fluorobenzoyl)piperazin-1-yl)-3-oxopropoxy)ethoxy)ethoxy)ethyl)amino)-2-(2,6-dioxopiperidin-3-yl)isoindoline-1,3-dione]
potently suppress PTK6 expression | Cc1ncsc1-c1ccc(CNC(=O)[C@@H]2C[C@@H](O)CN2C(=O)[C@@H](NC(=O)COCC(=O)N2CCN(C(=O)c3ccc(Nc4nc(C5CC5)cn5c(-c6cn[nH]c6)cnc45)c(F)c3)CC2)C(C)(C)C)cc1 [YX79-40, (2S,4R)-1-((S)-2-(2-(2-(4-(4-((6-cyclopropyl-3-(1H-pyrazol-4-yl)imidazo[1,2-a]pyrazin-8-yl)amino)-3-fluorobenzoyl)piperazin-1-yl)-2-oxoethoxy)acetamido)-3,3-dimethylbutanoyl)-4-hydroxy-N-(4-(4-methylthiazol-5-yl)benzyl)pyrrolidine-2-carboxamide]
potently suppress PTK6 expression | Cc1ncsc1-c1ccc(CNC(=O)[C@@H]2C[C@@H](O)CN2C(=O)[C@@H](NC(=O)COCCOCC(=O)N2CCN(C(=O)c3ccc(Nc4nc(C5CC5)cn5c(-c6cn[nH]c6)cnc45)c(F)c3)CC2)C(C)(C)C)cc1 [YX79-41, (2S,4R)-1-((S)-2-(2-(2-(2-(4-(4-((6-cyclopropyl-3-(1H-pyrazol-4-yl)imidazo[1,2-a]pyrazin-8-yl)amino)-3-fluorobenzoyl)piperazin-1-yl)-2-oxoethoxy)ethoxy)acetamido)-3,3-dimethylbutanoyl)-4-hydroxy-N-(4-(4-methylthiazol-5-yl)benzyl)pyrrolidine-2-carboxamide]
potently suppress PTK6 expression | Cc1ncsc1-c1ccc(CNC(=O)[C@@H]2C[C@@H](O)CN2C(=O)[C@@H](NC(=O)COCCOCCOCC(=O)N2CCN(C(=O)c3ccc(Nc4nc(C5CC5)cn5c(-c6cn[nH]c6)cnc45)c(F)c3)CC2)C(C)(C)C)cc1 [YX79-42, (2S,4R)-1-((S)-2-(tert-butyl)-14-(4-(4-((6-cyclopropyl-3-(1H-pyrazol-4-yl)imidazo[1,2-a]pyrazin-8-yl)amino)-3-fluorobenzoyl)piperazin-1-yl)-4,14-dioxo-6,9,12-trioxa-3-azatetradecanoyl)-4-hydroxy-N-(4-(4-methylthiazol-5-yl)benzyl)pyrrolidine-2-carboxamide]
potently suppress PTK6 expression | Cc1ncsc1-c1ccc(CNC(=O)[C@@H]2C[C@@H](O)CN2C(=O)[C@@H](NC(=O)CCCCCCC(=O)NCCN2CCN(C(=O)c3ccc(Nc4nc(C5CC5)cn5c(-c6cn[nH]c6)cnc45)c(F)c3)CC2)C(C)(C)C)cc1 [YX79-59, N^1-(2-(4-(4-((6-cyclopropyl-3-(1H-pyrazol-4-yl)imidazo[1,2-a]pyrazin-8-yl)amino)-3-fluorobenzoyl)piperazin-1-yl)ethyl)-N^8-((S)-1-((2S,4R)-4-hydroxy-2-((4-(4-methylthiazol-5-yl)benzyl)carbamoyl)pyrrolidin-1-yl)-3,3-dimethyl-1-oxobutan-2-yl)octanediamide]
